Legend:
[1] = system: lithium-induced nausea (conditioned rejection reactions); conditions: previously reported, rats; cited from earlier work
[2] = system: conditioned taste avoidance; experiment: Consumption test of lithium-paired saccharin solution (conditioned taste avoidance); type: in vivo; conditions: pretreatment 5 mg/kg prior to conditioning; 6 hr consumption test on day following final TR test, non-deprived rats
Method: (§1) [drawing 3] • In Experiment 1 were used 29 male rats and in Experiment 2 were used 24 male Sprague-Dawley rats (Charles River Labs, St. Constant, Quebec), which weighed 290-350 gm on the conditioning day. They were individually housed in stainless steel hanging cages in a colony room kept at 21° C. on a 12:12 hr light:dark schedule with the lights on at 07.00 h. Throughout the experiment, the rats were maintained on ad-lib Purina Rat Chow and water. The procedures were approved by the Wilfrid Laurier University Animal Care Committee according to the guidelines of the Canadian Council on Animal Care. • b. The rats were surgically implanted with intra-oral cannulae as described by Parker, L. A. Learn Motiv., 13, 281-303 (1982). The surgical anesthesia preparation included administration of 0.4 mg/kg atropine solution i.p. 15 min prior to ketamine (75 mg/kg, i.p.) combined with xylazine (10 mg/kg, i.p.) which was dissolved in sterile water and administered at a volume of 1 ml/kg. […] On this trial, the water bottles were replaced with tubes containing the saccharin solution and the amounts consumed over a 6 hr period of drinking were recorded. • i. Taste reactivity scoring: A rater blind to the experimental conditions scored the videotapes on two occasions in slow motion (⅕ speed) using the Observer (Noldus, NL) event-recording program on a PC computer. […]

[3] = system: lithium-induced nausea (conditioned rejection reactions); experiment: Taste Reactivity (TR) test: lithium-induced conditioned rejection reactions to saccharin solution; type: in vivo, rats; conditions: for establishment of conditioned rejection reactions: pretreatment 5 mg/kg ip 30 min prior to conditioning trial (saccharin-lithium pairing), versus vehicle pretreatment
Method: as §1, with “ml/kg. On each of three subsequent days during recovery from surgery, the cannulae were flushed with a chlorhexidine rinse (Novlosan; 0.1% chlorhexidine) to prevent infection. • c. […] The rats were randomly assigned to independent groups on the basis of the pretreatment drug and the conditioning drug. In Experiment 1, the groups were as follows: CBD-lithium (n=8), CBD-saline (n=6), Vehicle-lithium (n=8), Vehicle-saline (n=7). In Experiment 2, the groups were as follows: CBD-DMH-lithium (n=6), CBD-DMH-saline (n=6), Vehicle-lithium (n=6), Vehicle-saline (n=6). […] The order of the test trials was counterbalanced among the rats in each group. • d.” for “ml/kg.”

[4] = biological target: CB1 receptor (Homo sapiens, UniProt P21554); conditions: cited from earlier work
Chain of CB1 receptor (P21554 whole entry): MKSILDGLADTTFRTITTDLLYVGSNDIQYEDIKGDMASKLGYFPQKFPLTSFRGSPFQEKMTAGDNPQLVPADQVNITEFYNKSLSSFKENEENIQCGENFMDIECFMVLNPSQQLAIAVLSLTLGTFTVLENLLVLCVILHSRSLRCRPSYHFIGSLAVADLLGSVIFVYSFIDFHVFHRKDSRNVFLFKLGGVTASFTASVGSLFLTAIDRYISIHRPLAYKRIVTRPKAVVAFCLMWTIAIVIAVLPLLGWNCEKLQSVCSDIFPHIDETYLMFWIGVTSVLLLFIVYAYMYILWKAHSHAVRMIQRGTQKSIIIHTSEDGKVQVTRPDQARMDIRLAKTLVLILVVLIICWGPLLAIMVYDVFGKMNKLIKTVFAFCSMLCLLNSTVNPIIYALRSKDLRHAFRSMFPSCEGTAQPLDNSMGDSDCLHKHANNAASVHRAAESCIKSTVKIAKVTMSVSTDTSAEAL

[5] = system: conditioned taste avoidance; conditions: previously reported, as pretreatment agent; cited from earlier work

Compound | establishment and expression of conditioned rejection reactions [1] | strength of avoidance response (ml saccharin solution consumed) [2] | establishment of conditioned rejection reactions [3] | affinity for the CB1 receptor [4] | expression of previously established conditioned rejection reactions ([3]; 5 mg/kg ip 30 min prior to TR test trial, lithium-conditioned male Sprague-Dawley rats, versus vehicle test trial) | establishment of conditioned taste avoidance in a consumption test [5]
CCCCCc1cc(O)c2c(c1)OC(C)(C)[C@@H]1CCC(C)=C[C@@H]21 [THC] | interfered with the establishment and the expression of conditioned rejection reactions | – | – | – | – | –
C=C(C)C1CCC(C)=CC1c1c(O)cc(C(C)(C)CCCCCC)cc1O (stereo not drawn) [CBD-DMH, cannabidiol-dimethyl heptyl] | – | did not modulate the strength of the avoidance response | interfered with the establishment of conditioned rejection reactions | relatively weak affinity | – | –
C=C(C)[C@@H]1CCC(C)=C[C@H]1c1c(O)cc(CCCCC)cc1O [CBD, cannabidiol] | – | did not modulate the strength of the avoidance response | attenuated the establishment of conditioned rejection reactions | – | attenuated the expression of previously established conditioned rejection reactions | –
Cc1nccn1CC1CCc2c(c3ccccc3n2C)C1=O (stereo not drawn) [ondansetron] | interfered with the establishment and the expression of conditioned rejection reactions | – | – | – | – | did not interfere with the establishment of conditioned taste avoidance

Source: US8119697B2 (Yissum Research Development Company of the Hebrew …, priority 2002, dated 2012)
